Literature values in patent publication US10155050B2, “Cross-linked star-shaped self-assembled polypeptides and its use as carriers in biomedical applications” (CENTRO DE INVESTIGACION PRINCIPE FELIPE, priority 2015, dated 2018).

Conditions: FVB mice

inulin
renal clearance value: around 20 mL/h
